From ChEMBL document CHEMBL1201862, “PubChem BioAssay data set” (2004)
Activity calls are given as the source filed them.

Tests used:
Procathepsin L = Procathepsin L (Homo sapiens, UniProt P07711); assay: CTSL1 protease inhibition – biochemical, QFRET, 1536-well, counter-screen for M1/M17 aminopeptidase inhibitor project, dose response (AID 2214)
Leucine aminopeptidase = target: T1, Leucine aminopeptidase (Plasmodium falciparum 3D7, UniProt Q8IL11); assay: P. falciparum M17LAP inhibitors, primary screen, biochemical, fluorogenic H-Leu-NHMec substrate, 1536-well (AID 1619); format: functional
T1 sequence (Q8IL11 whole entry): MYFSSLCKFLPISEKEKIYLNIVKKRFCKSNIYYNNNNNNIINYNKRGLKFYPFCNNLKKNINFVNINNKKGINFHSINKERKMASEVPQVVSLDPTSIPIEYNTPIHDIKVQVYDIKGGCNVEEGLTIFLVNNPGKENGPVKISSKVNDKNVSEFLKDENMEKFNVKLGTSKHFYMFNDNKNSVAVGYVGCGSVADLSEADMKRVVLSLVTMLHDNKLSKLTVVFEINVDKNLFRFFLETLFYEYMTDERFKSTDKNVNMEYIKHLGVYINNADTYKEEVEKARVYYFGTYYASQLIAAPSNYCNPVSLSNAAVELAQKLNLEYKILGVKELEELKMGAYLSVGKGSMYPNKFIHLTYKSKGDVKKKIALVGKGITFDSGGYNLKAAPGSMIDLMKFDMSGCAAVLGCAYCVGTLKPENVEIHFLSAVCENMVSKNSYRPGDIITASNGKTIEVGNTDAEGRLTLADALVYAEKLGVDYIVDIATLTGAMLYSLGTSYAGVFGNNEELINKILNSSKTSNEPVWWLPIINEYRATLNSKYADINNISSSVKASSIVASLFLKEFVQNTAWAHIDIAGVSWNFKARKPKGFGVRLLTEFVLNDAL

Cytochrome P450 2C9 = Cytochrome P450 2C9 (Homo sapiens, UniProt P11712)
Sequence of Cytochrome P450 2C9 (P11712 whole entry): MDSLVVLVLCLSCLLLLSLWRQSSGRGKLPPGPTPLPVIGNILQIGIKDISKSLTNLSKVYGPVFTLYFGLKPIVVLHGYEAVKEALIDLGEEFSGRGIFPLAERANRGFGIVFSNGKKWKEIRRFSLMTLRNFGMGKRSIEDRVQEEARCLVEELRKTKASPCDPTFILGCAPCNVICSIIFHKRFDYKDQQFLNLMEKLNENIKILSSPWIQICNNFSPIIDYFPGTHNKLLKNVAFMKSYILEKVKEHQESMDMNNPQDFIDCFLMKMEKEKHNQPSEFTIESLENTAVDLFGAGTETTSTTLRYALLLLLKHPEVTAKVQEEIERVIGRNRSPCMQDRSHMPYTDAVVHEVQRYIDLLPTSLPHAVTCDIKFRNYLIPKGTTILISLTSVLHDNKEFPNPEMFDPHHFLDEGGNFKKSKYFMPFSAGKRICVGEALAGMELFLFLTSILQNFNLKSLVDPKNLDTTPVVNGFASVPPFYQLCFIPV

Aspartyl aminopeptidase = target: T2, Aspartyl aminopeptidase (Plasmodium falciparum 3D7, UniProt Q8I2J3); assay: Counterscreen for inhibitors of M1 and M17 aminopeptidases: QFRET-based biochemical high throughput dose response assay for inhibitors of the Plasmodium falciparum M18 Aspartyl Aminopeptidase (PFM18AAP). [Related PubChem assays: 1619 (Screening assay (M17LAP inhibitors).), 1445 (Screening assay (M1AAP inhibitors).)]
T2 sequence (Q8I2J3 whole entry): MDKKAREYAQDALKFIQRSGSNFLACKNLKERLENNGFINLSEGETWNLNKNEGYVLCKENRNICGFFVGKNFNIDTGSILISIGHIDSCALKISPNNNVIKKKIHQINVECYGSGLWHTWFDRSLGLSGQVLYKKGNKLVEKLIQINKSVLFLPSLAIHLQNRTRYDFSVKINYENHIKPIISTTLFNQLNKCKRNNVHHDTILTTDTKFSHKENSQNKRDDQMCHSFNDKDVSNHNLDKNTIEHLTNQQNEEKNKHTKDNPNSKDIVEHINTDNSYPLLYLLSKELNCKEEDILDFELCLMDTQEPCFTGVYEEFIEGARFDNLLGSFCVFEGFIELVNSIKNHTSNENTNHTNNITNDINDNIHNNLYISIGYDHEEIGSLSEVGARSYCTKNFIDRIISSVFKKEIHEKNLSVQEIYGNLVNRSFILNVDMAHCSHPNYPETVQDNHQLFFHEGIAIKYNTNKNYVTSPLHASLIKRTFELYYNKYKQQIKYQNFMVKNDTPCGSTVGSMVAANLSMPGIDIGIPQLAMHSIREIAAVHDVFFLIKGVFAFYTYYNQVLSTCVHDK

Cytochrome P450 2C19 = Cytochrome P450 2C19 (Homo sapiens, UniProt P33261); assay: Cytochrome panel assay with activity outcomes. Panel member name: p450-cyp2c19 Compounds with AC50 equal or less than 10 uM are considered active; format: functional; settings: read-out: AC50
Sequence of Cytochrome P450 2C19 (P33261 whole entry): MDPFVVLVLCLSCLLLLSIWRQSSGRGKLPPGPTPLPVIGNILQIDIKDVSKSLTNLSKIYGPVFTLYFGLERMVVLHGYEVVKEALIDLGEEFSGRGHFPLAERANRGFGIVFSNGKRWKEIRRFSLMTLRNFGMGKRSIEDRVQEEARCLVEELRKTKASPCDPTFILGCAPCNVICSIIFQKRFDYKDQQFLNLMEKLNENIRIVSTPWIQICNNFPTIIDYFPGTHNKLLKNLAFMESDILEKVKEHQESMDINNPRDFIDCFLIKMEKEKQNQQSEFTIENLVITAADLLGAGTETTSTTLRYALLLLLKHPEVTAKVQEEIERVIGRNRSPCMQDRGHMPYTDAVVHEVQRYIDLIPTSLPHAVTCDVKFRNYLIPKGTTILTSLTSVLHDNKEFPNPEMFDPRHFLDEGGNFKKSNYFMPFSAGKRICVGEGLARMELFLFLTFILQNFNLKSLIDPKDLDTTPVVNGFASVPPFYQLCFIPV

[1] = target: 5-hydroxytryptamine receptor 1A (Homo sapiens, UniProt P08908); format: functional
Sequence of 5-hydroxytryptamine receptor 1A (P08908 whole entry): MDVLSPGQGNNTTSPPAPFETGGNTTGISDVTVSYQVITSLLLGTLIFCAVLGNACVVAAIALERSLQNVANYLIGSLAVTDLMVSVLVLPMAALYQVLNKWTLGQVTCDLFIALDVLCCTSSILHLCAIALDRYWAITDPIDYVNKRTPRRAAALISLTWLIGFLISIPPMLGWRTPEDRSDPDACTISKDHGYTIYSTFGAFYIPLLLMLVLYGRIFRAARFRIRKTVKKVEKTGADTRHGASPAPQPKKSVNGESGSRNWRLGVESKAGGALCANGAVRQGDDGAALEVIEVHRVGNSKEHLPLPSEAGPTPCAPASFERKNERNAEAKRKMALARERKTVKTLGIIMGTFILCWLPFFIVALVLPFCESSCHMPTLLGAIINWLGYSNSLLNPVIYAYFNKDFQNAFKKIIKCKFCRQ

[2] = M. tuberculosis H37Rv growth inhibitors, H37Rv strain (AID 1626); format: functional
Protein RecA = target: T3, Protein RecA (Mycobacterium tuberculosis, UniProt P9WHJ3); assay: Fluorescence Cell-Free Homogeneous Dose Retest to Identify Inhibitors of RecA-Intein Splicing Activity. [Related pubchem assays (depositor defined):AID2097, AID2223, AID489010, AID492950]; format: functional
T3 sequence (P9WHJ3 whole entry): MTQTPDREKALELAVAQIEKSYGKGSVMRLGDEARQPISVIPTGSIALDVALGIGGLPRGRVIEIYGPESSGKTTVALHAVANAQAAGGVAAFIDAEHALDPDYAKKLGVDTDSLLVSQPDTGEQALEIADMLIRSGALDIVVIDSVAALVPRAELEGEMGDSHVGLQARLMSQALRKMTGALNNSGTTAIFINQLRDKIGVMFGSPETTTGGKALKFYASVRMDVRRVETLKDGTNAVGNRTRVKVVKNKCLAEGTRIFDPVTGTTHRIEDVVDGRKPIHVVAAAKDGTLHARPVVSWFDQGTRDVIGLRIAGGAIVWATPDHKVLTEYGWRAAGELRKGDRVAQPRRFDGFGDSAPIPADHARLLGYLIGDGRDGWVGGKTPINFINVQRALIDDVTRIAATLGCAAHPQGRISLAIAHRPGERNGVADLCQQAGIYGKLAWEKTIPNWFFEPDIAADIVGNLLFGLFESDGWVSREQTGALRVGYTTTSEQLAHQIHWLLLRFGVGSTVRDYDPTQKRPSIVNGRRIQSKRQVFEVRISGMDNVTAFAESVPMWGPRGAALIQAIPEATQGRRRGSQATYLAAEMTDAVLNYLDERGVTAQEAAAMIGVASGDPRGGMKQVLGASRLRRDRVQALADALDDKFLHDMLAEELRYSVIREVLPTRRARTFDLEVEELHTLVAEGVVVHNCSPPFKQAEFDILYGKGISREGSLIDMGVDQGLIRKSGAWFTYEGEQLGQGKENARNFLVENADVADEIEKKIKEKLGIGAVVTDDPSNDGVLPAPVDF

Fibrinogen beta chain [3] = target: T4, Fibrinogen beta chain (Homo sapiens, UniProt P02675); assay: Fluorescence polarization-based biochemical high throughput dose response assay to identify inhibitors that disrupt the binding of a cyclic peptide (Tn6) to the fibrin proteolytic product D-Dimer and fragment E complex [DD(E )].
T4 sequence (P02675 whole entry): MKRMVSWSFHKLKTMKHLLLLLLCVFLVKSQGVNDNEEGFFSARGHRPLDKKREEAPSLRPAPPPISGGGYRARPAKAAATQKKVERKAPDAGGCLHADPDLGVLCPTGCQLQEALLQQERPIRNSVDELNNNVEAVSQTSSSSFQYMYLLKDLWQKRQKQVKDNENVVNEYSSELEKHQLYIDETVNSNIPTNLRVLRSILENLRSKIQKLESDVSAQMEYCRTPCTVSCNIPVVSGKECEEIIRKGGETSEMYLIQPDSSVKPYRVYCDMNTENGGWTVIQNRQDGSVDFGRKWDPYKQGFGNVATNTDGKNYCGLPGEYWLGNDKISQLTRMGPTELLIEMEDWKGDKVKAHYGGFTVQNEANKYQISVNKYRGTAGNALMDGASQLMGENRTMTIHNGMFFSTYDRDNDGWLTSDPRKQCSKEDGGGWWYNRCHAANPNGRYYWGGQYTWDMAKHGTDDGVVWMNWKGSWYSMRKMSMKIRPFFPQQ

[4] = target: T5, Replicative DNA helicase DnaB (Mycobacterium tuberculosis, UniProt P9WMR3); assay: DnaB intein splicing inhibitors, dose response, biochemical, cell-free fluorescence (AID 449749); format: functional
T5 sequence (P9WMR3 whole entry): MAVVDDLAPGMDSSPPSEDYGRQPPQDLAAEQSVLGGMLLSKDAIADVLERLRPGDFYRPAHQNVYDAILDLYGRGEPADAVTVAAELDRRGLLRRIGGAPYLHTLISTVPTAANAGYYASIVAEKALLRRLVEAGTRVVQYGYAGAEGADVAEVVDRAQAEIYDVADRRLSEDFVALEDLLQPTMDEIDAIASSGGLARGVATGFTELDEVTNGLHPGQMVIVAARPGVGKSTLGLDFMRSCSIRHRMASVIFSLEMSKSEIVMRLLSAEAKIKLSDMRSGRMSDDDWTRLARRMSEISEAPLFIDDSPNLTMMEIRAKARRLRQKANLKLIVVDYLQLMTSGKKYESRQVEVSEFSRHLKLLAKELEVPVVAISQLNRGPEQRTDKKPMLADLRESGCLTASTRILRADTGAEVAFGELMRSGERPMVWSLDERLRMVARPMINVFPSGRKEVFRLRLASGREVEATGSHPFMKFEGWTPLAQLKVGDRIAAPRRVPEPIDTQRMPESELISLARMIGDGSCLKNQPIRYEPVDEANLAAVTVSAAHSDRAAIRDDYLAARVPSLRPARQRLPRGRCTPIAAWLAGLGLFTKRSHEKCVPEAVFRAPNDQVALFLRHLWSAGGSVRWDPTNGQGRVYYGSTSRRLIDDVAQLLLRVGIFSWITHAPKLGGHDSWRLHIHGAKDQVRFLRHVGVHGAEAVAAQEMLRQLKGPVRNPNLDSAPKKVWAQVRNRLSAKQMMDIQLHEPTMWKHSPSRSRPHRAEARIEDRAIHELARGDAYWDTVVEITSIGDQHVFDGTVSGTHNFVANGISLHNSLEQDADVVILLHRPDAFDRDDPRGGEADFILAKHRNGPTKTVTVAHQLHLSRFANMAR

Bcl-2-like protein 10 = target: T6, Bcl-2-like protein 10 (Homo sapiens, UniProt Q9HD36); assay: Bcl-B/TR3 peptide binding disruption – biochemical, fluorescence polarization, FITC-TR3 peptide, selectivity assay for Bfl-1 inhibitor project, primary screen (AID 748);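 further: fluorescence polarization from a fluorescein-labelled TR3 peptide binding purified Bcl-B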
T6 sequence (Q9HD36 whole entry): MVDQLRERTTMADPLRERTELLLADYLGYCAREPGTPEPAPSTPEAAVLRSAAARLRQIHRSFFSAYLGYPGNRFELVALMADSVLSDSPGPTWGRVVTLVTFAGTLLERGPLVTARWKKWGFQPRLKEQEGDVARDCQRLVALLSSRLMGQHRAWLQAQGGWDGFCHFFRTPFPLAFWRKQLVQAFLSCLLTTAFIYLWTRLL

[5] = target: T7, Zinc finger protein mex-5 (Caenorhabditis elegans, UniProt Q9XUB2); assay: potency of MEX-5 RNA-binding blockers – biochemical, C. elegans, fluorescence polarization, dose response (AID 1960)
T7 sequence (Q9XUB2 whole entry): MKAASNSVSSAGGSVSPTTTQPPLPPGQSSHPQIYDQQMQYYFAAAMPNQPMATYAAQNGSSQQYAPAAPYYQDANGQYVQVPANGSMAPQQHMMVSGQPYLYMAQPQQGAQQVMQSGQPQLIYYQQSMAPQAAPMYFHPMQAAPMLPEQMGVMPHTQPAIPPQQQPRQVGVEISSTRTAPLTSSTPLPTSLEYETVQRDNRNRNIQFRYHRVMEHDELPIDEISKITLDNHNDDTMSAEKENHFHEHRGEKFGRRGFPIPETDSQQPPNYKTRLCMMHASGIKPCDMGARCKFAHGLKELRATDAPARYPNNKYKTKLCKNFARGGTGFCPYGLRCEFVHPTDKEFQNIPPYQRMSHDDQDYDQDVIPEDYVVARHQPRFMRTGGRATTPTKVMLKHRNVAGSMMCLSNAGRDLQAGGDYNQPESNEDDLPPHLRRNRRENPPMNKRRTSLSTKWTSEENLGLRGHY

[6] = target: T8, RNA-binding protein pos-1 (Caenorhabditis elegans, UniProt G5EF15); assay: disruptors of C. elegans POS-1 RNA interaction – biochemical, fluorescence polarization, dose response (AID 1964);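 further: purified POS-1 fused to maltose binding protein made in E. coli; potency of compounds blocking POS-1 binding to fluorescent RNA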
T8 sequence (G5EF15 whole entry): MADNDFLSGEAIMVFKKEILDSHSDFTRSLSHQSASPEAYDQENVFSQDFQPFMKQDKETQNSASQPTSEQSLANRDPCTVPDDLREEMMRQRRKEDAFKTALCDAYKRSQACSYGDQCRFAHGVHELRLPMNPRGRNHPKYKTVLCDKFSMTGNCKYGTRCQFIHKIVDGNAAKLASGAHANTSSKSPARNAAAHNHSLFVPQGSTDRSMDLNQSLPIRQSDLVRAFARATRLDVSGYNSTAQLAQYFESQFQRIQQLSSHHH

14-3-3 protein gamma = 14-3-3 protein gamma (Homo sapiens, UniProt P61981); assay: modulators of 14-3-3 gamma client binding – dose response (AID 711); format: functional
Sequence of 14-3-3 protein gamma (P61981 whole entry, the tested form may be a part): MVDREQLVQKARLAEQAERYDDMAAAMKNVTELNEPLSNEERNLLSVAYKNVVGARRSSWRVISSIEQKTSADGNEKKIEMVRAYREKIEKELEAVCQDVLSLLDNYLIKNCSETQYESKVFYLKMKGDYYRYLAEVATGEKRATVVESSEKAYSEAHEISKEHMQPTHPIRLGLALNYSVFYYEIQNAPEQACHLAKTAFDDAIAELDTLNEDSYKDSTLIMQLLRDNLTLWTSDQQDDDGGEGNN

Fibrinogen beta chain [7] = target: T4, Fibrinogen beta chain; assay: Fluorescence polarization-based biochemical high throughput dose response assay to identify inhibitors that disrupt the binding of a cyclic peptide (Tn7) to the fibrin proteolytic product D-Dimer and fragment E complex [DD(E )].
Genome polyprotein = Genome polyprotein (dengue virus type 2, UniProt P29990); assay: flavivirus cap methylation enzyme inhibition – biochemical, confirmation dose response, primary screen (AID 588689); format: functional
Sequence of Genome polyprotein (P29990 2492-3391 limits assumed): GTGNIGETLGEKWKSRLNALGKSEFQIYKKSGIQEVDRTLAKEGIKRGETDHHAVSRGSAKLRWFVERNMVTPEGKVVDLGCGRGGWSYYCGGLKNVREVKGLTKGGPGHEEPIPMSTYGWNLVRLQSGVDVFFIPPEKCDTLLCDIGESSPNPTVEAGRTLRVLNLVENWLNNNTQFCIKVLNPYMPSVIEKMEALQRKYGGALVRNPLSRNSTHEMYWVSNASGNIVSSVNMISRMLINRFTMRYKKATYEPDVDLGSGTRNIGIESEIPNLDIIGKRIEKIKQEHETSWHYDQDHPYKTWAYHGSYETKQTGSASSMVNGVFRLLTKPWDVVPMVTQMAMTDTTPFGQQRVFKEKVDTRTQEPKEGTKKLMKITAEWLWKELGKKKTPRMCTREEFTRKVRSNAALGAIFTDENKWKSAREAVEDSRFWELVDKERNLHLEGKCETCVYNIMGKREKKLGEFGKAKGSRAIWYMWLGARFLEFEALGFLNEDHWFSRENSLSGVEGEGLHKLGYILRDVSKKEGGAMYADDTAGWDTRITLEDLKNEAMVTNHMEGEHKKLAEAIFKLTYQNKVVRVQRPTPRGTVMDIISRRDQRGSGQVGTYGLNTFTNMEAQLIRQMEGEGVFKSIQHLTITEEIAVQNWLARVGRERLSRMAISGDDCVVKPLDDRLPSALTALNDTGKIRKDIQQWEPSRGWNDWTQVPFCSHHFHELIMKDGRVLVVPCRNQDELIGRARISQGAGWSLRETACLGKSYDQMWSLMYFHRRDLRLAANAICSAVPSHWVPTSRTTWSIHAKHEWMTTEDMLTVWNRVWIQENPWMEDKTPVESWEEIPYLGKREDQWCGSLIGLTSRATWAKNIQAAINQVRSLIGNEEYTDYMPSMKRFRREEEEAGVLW

[8] = target: Tyrosyl-DNA phosphodiesterase 2 (Homo sapiens, UniProt O95551); assay: potency against TDP2 phosphodiesterase activity – biochemical, epi absorbance, IC50, dose response (AID 743297)
Sequence of Tyrosyl-DNA phosphodiesterase 2 (O95551 whole entry): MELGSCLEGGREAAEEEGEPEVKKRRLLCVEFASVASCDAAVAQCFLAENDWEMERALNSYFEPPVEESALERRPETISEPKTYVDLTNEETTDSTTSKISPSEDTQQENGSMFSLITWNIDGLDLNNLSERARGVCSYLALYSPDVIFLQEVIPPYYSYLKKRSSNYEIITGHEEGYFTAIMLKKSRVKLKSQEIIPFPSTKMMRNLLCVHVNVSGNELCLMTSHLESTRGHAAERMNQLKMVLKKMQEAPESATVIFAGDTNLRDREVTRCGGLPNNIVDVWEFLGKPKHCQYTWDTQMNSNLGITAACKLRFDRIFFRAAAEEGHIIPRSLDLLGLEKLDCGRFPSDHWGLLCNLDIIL

[9] = IC50 of Artemis nuclease activity blockers – biochemical, fluorescence intensity, dose response (AID 720701); format: functional;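 further: Artemis endonuclease enzyme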

Sequence of Procathepsin L (P07711 whole entry): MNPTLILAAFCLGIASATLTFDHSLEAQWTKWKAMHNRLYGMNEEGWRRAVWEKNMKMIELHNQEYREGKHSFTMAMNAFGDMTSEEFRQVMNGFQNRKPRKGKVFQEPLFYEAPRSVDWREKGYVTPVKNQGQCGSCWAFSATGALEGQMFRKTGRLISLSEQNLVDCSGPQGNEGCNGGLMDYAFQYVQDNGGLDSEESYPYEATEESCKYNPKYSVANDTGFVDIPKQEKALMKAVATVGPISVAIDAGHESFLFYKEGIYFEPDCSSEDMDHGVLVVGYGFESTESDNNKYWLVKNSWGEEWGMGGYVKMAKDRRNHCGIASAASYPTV

COc1ccc(NC(=O)CSC2=NC(=O)CC(C)=N2)cc1
IC50 (Procathepsin L): > 59.6 µM (not active) | IC50 (Leucine aminopeptidase): 3.09 µM (active) | AC50 (Cytochrome P450 2C9): 25.1 µM (inconclusive) | IC50 (Aspartyl aminopeptidase): > 73.5 µM (not active) | AC50 (Cytochrome P450 2C19): 15.8 µM (inconclusive)

Cc1cccc(NC(=O)C2CCCN(C(=O)Nc3ccccc3)C2)c1C (stereo not drawn)
EC50 [1]: > 50 µM (not active)

Nc1cc(O)nc(SCC(=O)Nc2ccccc2-c2ccccc2)n1
IC50 [2]: > 100 µM (active)

COc1cc(NCCCC(C)N)c2ncccc2c1 (stereo not drawn)
EC50 (Protein RecA): 0.42 µM (active) | IC50 (Fibrinogen beta chain [3]): 54.4 µM (inactive) | AC50 [4]: 4.78 µM (active) | IC50 (Bcl-2-like protein 10): 8.47 µM (active) | EC50 [5]: 34.3 µM (active) | EC50 [6]: 42.5 µM (active) | IC50 (14-3-3 protein gamma): > 50 µM (not active) | IC50 (Fibrinogen beta chain [7]): > 83.3 µM (inactive) | IC50 (Genome polyprotein): > 100 µM (active) | IC50 [8]: 49.2 µM (inactive) | IC50 [9]: > 20 µM (inactive)
